Assay: RP, Agilent ZORBAX Eclipse Plus C18, 50 × 4.6 mm, 1.8 µm, 0.5 mL/min, estimated dead time 1.1 min; A: water + 0.1% formic acid; B: acetonitrile + 0.1% formic acid; gradient (min/%B) 0/10 3/10 25/100 28/100
Settings: stereoisomer not certain

Structure (SMILES)	LC retention time
Cc1cc(NS(=O)(=O)c2ccc(N)cc2)no1	9.06 min
CCCCCCCCCCCCCCCC[N+](C)(C)Cc1ccccc1	20.6 min
CCNC(C)Cc1ccc2c(c1)OCO2 (stereo unspecified)	6.16 min
Nc1nc(N)nc(NC2CC2)n1	1.36 min
CCN(CC)C(=O)c1cccc(C)c1	12.8 min
CN1CCC23c4c5ccc(O)c4OC2C(O)C=CC3C1C5 (stereo unspecified)	1.47 min
CSC(C)=NOC(=O)N(C)SN(C)C(=O)ON=C(C)SC	11.8 min
COC(=O)Nc1nc2ccc(S(=O)c3ccccc3)cc2[nH]1 (stereo unspecified)	8.64 min
CN(C)C1CSSSC1	2.02 min
O=c1[nH]c2c(c(=O)n1C1CCCCC1)CCC2	11.3 min
Cc1c(N)c(=O)n(-c2ccccc2)n1C	2.39 min
CC1=NNC(=O)N(N=Cc2cccnc2)C1	1.4 min
CNC(=O)Oc1ccccc1OC(C)C	11.9 min
CCOP(=O)(NC(C)C)Oc1ccc(SC)c(C)c1 (stereo unspecified)	15.4 min
COC(=O)C1C(OC(=O)c2ccccc2)CC2CCC1N2C (stereo unspecified)	7.3 min
CC(C)(C)C(O)C(Oc1ccc(-c2ccccc2)cc1)n1cncn1 (stereo unspecified)	16.6 min
COP(=S)(OC)Oc1ccc(S(=O)(=O)N(C)C)cc1	15.3 min
CNC(=O)ON=C(C)SC	5.39 min
CC(C)NCC(O)COc1ccc(CC(N)=O)cc1 (stereo unspecified)	1.76 min
Nc1ccc(S(=O)(=O)Nc2ncccn2)cc1	4.16 min
CCSC(=O)N1CCCCCC1	16 min

Structure (SMILES)	LC retention time
CCOP(=S)(OCC)SCSP(=S)(OCC)OCC	21.7 min
CNC(=O)N(C)c1nc2ccccc2s1	12.1 min
CNC(=O)Oc1ccccc1C(C)C	13.6 min
CCn1cc(C(=O)O)c(=O)c2cc3c(cc21)OCO3	9.71 min
COP(=O)(OC)OC(C)=CC(=O)N(C)C	6.41 min
CCOP(=S)(OCC)Oc1cc(C)nc(C(C)C)n1	18.8 min
CSc1nc(NC(C)C)nc(NC(C)C)n1	12.1 min
CSc1nc(NC2CC2)nc(NC(C)(C)C)n1	12.6 min
CNC(=O)Oc1ccc(N(C)C)c(C)c1	1.85 min
CC1c2cccc(O)c2C(O)=C2C(=O)C3(O)C(O)=C(C(N)=O)C(=O)C(N(C)C)C3C(O)C21 (stereo unspecified)	8.75 min
CC12CCC3C(CCC4=CC(=O)CCC43C)C1CCC2=O (stereo unspecified)	14.8 min
Cn1c(=O)[nH]c(=O)c2[nH]cnc21	1.47 min
Cc1c(C(C)C)c(=O)n(-c2ccccc2)n1C	11.9 min
O=C(O)c1ccccc1C(=O)Nc1cccc2ccccc12	11.7 min
CC12CCC3c4ccc(O)cc4CCC3C1CCC2O (stereo unspecified)	13.4 min
Nc1ccc(-c2ccc(N)cc2)cc1	1.36 min
COC1C(O)CC(=O)OC(C)CC=CC=CC(OC2CCC(N(C)C)C(C)O2)C(C)CC(CC=O)C1OC1OC(C)C(OC2CC(C)(O)C(O)C(C)O2)C(N(C)C)C1O (stereo unspecified)	7.59 min
COc1ccc(Oc2ccc(NC(=O)N(C)C)cc2)cc1	13.3 min
Cn1c(=O)c2c(ncn2C)n(C)c1=O	5.08 min
CCCCN(CC)C(=O)SCCC	19.6 min
